Data: patent US20130096160A1, “ARYLTHIAZOLYL PIPERIDINES AND RELATED COMPOUNDS AS MODULATORS OF SURVIVAL MOTOR NEURON (SMN) PROTEIN PRODUCTION” (Secretary, Department of Health and Human Services, priority 2010, published 2013)

Tested on: SMN2-luciferase reporter
Assay: SMN2-luciferase reporter qHTS assay
Format: cell-based, human
Parameters: key to Curve Class: A curve class of 1.1 is a full agonist/antagonist; a curve class of 4 indicates the compound is inactive
Settings: for Curve Class: agonist/antagonist character of the concentration-response, lower values = more significant concentration-response; for Increased SMN2 activity: percent increase (or decrease) in SMN2 levels compared to control in which no test compound is added
Description: A cell-based quantitative high throughput screening (qHTS) assay is used to identify compounds able to increase SMN production. The assay uses a SMN2-luciferase reporter to determine if exon 7 of the SMN gene is expressed, which correlates with increased full-length SMN production from the SMN2 gene. As controls, a homologue SMN1-luciferase reporter cell line looks for variations in expression of the SMN1 gene and a cell line with just the luciferase reporter looks at the capacity of the compounds to inhibit luciferase. In addition, increments in SMN production by lead compounds were confirmed by Western-Blot analysis using SMA patient fibroblasts.
For the qHTS assay, concentration-response profiles are generated at the primary-screen level for each library compound to minimize the number of false positives. A dilution series consisting of seven points separated by five-fold concentration differences is prepared for each compound, yielding a concentration series that spans a range of about four orders of magnitude, for example from a high concentration of 50 micromolar to a low concentration of 3.2 nanomolar and providing adequate data for fitting to a Hill equation. For the assay, the SMN2 reporter cell line was plated at a density of ˜2000 cells/well in complete media (phenol red free DMEM, 10% detacl calf serum, and 1× pen/strep), in 1536 well white solid bottom tissue culture treated plates (Greiner). Cells were allowed to adhere and recover at 37 C in 5% CO2 for 10-12 hours. Compounds were added to the plates by a Pintool (Kalypsys) at a volume of 23 nl/well. Cells were incubated in the presence of compounds for 2 days at 37 C in 5% CO2. In order to quantify luciferase reporter levels, 3 ul/well of OneGlo (Promega) was added to each well and incubated at room temperature for 10 minutes. Luminescence from the reporter in each well is measured using a Viewlux CCD based imager (Perkin Elmer) with an integration time of 30 seconds and a binning of 2× in luminescence mode. Sodium butyrate was used as the positive control compound for luciferase induction and a column of 32 wells of 9.2 mM compound on each plate was used to monitor assay performance.
The SMN reporters used herein are modified from those previously described (M. L. Zhang, C. L. Lorson, E. J. Androphy and J. Zhou, An in vivo reporter system for measuring increased inclusion of exon 7 in SMN2 mRNA: potential therapy of SMA, Gene Ther 8 (2001), pp. 1532-1538.)
The sequence of the SMN1 reporter vector used herein is given in SEQ ID NO.:1, while that of the SMN2 reporter vector is given in SEQ ID NO.:2.
Each of the SMN reporters is constructed from three separate DNA fragments: (1) an SMN promotor sequence from the transcriptional reporter p 4.0T (SMN1) or p3.4C (SMN2) described in Monani, et al. Biochimica et Biophysica Acta 1445 (1999) 330-336; (2) a modification of the firefly luciferase splicing reporter for SMN1 or SMN2 described by Zhang et al; and (3) a 744 bp SMN cDNA fragment.
The 3.7 kB SMN1 promoter fragment is obtained by restriction of p4.0T with BglII and SacII. A 3.4 kB SMN2 promoter fragment is obtained by restriction of p3.4C with KpnI and SacII; a 300 bp BglII/KpnI fragment from p4.0T is then added to the 3.4 kB SMN2 promoter fragment to yield the final 3.7 kB SMN2 promoter fragment.
The modified SMN1 and SMN2 firefly luciferase splicing reporters are obtained by removing 4 kB of intron 6 in the original reporter system by restriction with SmaI/Swa followed by religation of the reporter. A 4 kB luciferase splicing reporter is then obtaind by digestion with XhoI and NotI.
Ths SMN cDNA fragment is obtained by generating the productof a polymerase chain reaction (PCR) on a cDNA preparation using […] (SEQ ID NO:3) as the forward primer and Tatctcgagtggtccagaaggaaatggaggcagcc (SEQ ID NO:4) as the reverse primer. The PCR product is then digested with XhoI and SacII. […]

Row | SMILES | Curve Class | Increased SMN2 activity
1 | CC(=O)NC1CCN(c2nc(-c3ccc(Br)cc3)cs2)CC1 [Example 113, N-(1-(4-(4-Bromophenyl)Thiazol-2-yl)Piperidin-4-yl)Acetamide] | −1.4 | −56.62%
2 | NC(=O)N1CCN(c2nc(-c3ccc(Br)cc3)cs2)CC1 [Example 118, 4-(4-(4-Bromophenyl)Thiazol-2-yl)Piperazine-1-Carboxamide] | 2.1 | 88.79%
3 | NC(=O)C1CCN(c2ncc(-c3ccc4c(c3)OCCO4)s2)CC1 [Example 120, 1-(5-(2,3-Dihydrobenzo[B][1,4]Dioxin-6-yl)Thiazol-2-yl)Piperidine-4-Carboxamide] | 1.1 | 424.6%
4 | NC(=O)C1CCN(c2ncc(-c3cccc(F)c3)s2)CC1 [Example 121, 1-(5-(3-Fluorophenyl)Thiazol-2-yl)Piperidine-4-Carboxamide] | 1.1 | 601.5%
5 | NC(=O)C1CCN(c2ncc(-c3ccc(Cl)cc3)s2)CC1 [Example 122, 1-(5-(4-Chlorophenyl)Thiazol-2-yl)Piperidine-4-Carboxamide] | 1.1 | 498.3%
6 | NC(=O)C1CCN(c2ncc(-c3ccc4c(c3)OCO4)s2)CC1 [Example 125, 1-(5-(Benzo[D][1,3]Dioxol-5-yl)Thiazol-2-yl)Piperidine-4-Carboxamide] | 1.1 | 589.875%
7 | Cc1ccc(-c2ccnc(N3CCC(C(N)=O)CC3)n2)cc1 [Example 126, 1-(4-P-Tolylpyrimidin-2-yl)Piperidine-4-Carboxamide] | 1.1 | 444.6%
8 | CC(C)Oc1cccc(-c2ccnc(N3CCC(C(N)=O)CC3)n2)c1 [Example 127, 1-(4-(3-Isopropoxyphenyl)Pyrimidin-2-yl)Piperidine-4-Carboxamide] | 1.1 | 298.225%
9 | NC(=O)C1CCN(c2nccc(-c3ccc4c(c3)OCCCO4)n2)CC1 [Example 128, 1-(4-(3,4-Dihydro-2H-Benzo[B][1,4]Dioxepin-7-yl)Pyrimidin-2-yl)Piperidine-4-Carboxamide] | 1.1 | 234.2%
10 | NC(=O)C1CCN(c2nccc(-c3ccc4c(c3)OCCO4)n2)CC1 [Example 129, 1-(4-(2,3-Dihydrobenzo[B][1,4]Dioxin-6-yl)Pyrimidin-2-yl)Piperidine-4-Carboxamide] | 1.1 | 364.3%
11 | NC(=O)C1CCN(c2nnc(-c3ccc4c(c3)OCCCO4)s2)CC1 [Example 130, 1-(5-(3,4-Dihydro-2H-Benzo[B][1,4]Dioxepin-7-yl)-1,3,4-Thiadiazol-2-yl)Piperidine-4-Carboxamide] | 1.1 | 257.1%
12 | CN(C)c1cccc(-c2nnc(N3CCC(C(N)=O)CC3)s2)c1 [Example 132, 1-(5-(3-(Dimethylamino)Phenyl)-1,3,4-Thiadiazol-2-yl)Piperidine-4-Carboxamide] | 1.1 | 448.5%
13 | Cc1ccc(-c2nnc(N3CCC(C(N)=O)CC3)s2)cc1 [Example 133, 1-(5-P-Tolyl-1,3,4-Thiadiazol-2-yl)Piperidine-4-Carboxamide] | 1.2 | 54%
14 | c1c[nH]c(C2CCN(c3ncc(-c4ccc5c(c4)OCCCO5)s3)CC2)n1 [Example 135, 2-(4-(1H-Imidazol-2-yl)Piperidin-1-yl)-5-(3,4-Dihydro-2H-Benzo[B][1,4] Dioxepin-7-yl)Thiazole] | 1.1 | 129.4%
15 | CN(C)c1cccc(-c2cnc(N3CCC(c4ncc[nH]4)CC3)s2)c1 [Example 136, 3-(2-(4-(1H-Imidazol-2-yl)Piperidin-1-yl)Thiazol-5-yl)-N,N-Dimethylaniline] | 1.1 | 188.2%
16 | NC(=O)C1CCN(c2ncc(-c3cccc(N4CCCC4)c3)s2)CC1 [Example 137, 1-(5-(3-(Pyrrolidin-1-yl)Phenyl)Thiazol-2-yl)Piperidine-4-Carboxamide] | 1.1 | 685.1%
17 | NC(=O)C1CCN(c2ncc(-c3cccc(N4CCCCC4)c3)s2)CC1 [Example 138, 1-(5-(3-(Piperidin-1-yl)Phenyl)Thiazol-2-yl)Piperidine-4-Carboxamide] | 1.1 | 565.6%
18 | NC(=O)C1CCN(c2ncc(-c3cccc(N4CCOCC4)c3)s2)CC1 [Example 139, 1-(5-(3-Morpholinophenyl)Thiazol-2-yl)Piperidine-4-Carboxamide] | 1.1 | 275.2%
19 | CC(=O)C1CCN(c2ncc(-c3cccc(N(C)C)c3)s2)CC1 [Example 141, 1-(1-(5-(3-(Dimethylamino)Phenyl)Thiazol-2-yl)Piperidin-4-yl)Ethanone] | 1.1 | 224.6%
20 | NC(=O)C1CCN(c2cc(-c3ccc4c(c3)OCCCO4)ncn2)CC1 [Example 142, 1-(6-(3,4-Dihydro-2H-Benzo[B][1,4]Dioxepin-7-yl)Pyrimidin-4-yl)Piperidine-4-Carboxamide] | 1.1 | 211.1%
21 | CN(C)c1cccc(-c2cc(N3CCC(C(N)=O)CC3)ncn2)c1 [Example 143, 1-(6-(3-(Dimethylamino)Phenyl)Pyrimidin-4-yl)Piperidine-4-Carboxamide] | 2.1 | 81.27%
22 | NC(=O)C1CCN(c2ncnc(-c3ccc4c(c3)OCCCO4)n2)CC1 [Example 144, 1-(4-(3,4-Dihydro-2H-Benzo[B][1,4]Dioxepin-7-yl)-1,3,5-Triazin-2-yl)Piperidine-4-Carboxamide] | 1.1 | 186.2%
23 | CN(C)c1cccc(-c2ncnc(N3CCC(C(N)=O)CC3)n2)c1 [Example 145, 1-(4-(3-(Dimethylamino)Phenyl)-1,3,5-Triazin-2-yl)Piperidine-4-Carboxamide] | 1.1 | 199.9%
24 | CCOC(=O)C1CCN(c2ncc(-c3ccc4c(c3)OCCCO4)s2)CC1 [Example 146, Ethyl 1-(5-(3,4-Dihydro-2H-Benzo[B][1,4]Dioxepin-7-yl)Thiazol-2-yl)Piperidine-4-Carboxylate] | 1.1 | 319.6%
25 | CN(C)c1cccc(-c2nc(N3CCC(C(N)=O)CC3)ncc2F)c1 [Example 149, 1-(4-(3-(Dimethylamino)Phenyl)-5-Fluoropyrimidin-2-yl)Piperidine-4-Carboxamide] | 1.1 | 373.2%
26 | COc1ccc(-c2cnc(N3CCC(C(N)=O)CC3)s2)cc1OC [Example 150, 1-(5-(3,4-Dimethoxyphenyl)Thiazol-2-yl)Piperidine-4-Carboxamide] | 1.1 | 209.7%
27 | CN(C)c1cccc(-c2ncc(F)c(N3CCC(C(N)=O)CC3)n2)c1 [Example 152, 1-(2-(3-(Dimethylamino)Phenyl)-5-Fluoropyrimidin-4-yl)Piperidine-4-Carboxamide] | 1.1 | 141.8%
28 | NC(=O)C1CCN(c2ncc(-c3ccc4c(c3)OC(F)(F)O4)s2)CC1 [Example 153, 1-(5-(2,2-Difluorobenzo[D][1,3]Dioxol-5-yl)Thiazol-2-yl)Piperidine-4-Carboxamide] | 1.1 | 598.4%
